DC50, GI50 and IC50 data for 13 compounds are collected here from patent publication US20250092039A1, “GLUTARIMIDE-CONTAINING PAN-KRAS-MUTANT DEGRADER COMPOUNDS AND USES THEREOF” (Tiger Biotherapeutics Inc., priority 2022, published 2025).

The target in one assay is KRAS G12V (Homo sapiens (Human), UniProt P01116, G12V). The assay is described as follows: KRAS G12V degradation in SW620 cells (Western blot, DC50). The format is cell-based. The settings on record: 24 hours. The procedure, abridged:
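KRAS levels were quantified by fluorescent Western blot as percent of the DMSO control after 24 h of compound exposure at 37° C in homozygous KRAS G12V SW620 cells. A four-parameter variable-slope fit of the dose-response gave the half-maximal degradation concentration.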
(A western blot detects proteins with antibodies after separation by electrophoresis.)

Another assay deals with SW620 cells. As to the kind of experiment: 3D cell growth inhibition of SW620 cells carrying endogenous KRAS G12V mutation (CellTiter-Glo 3D, GI50). The format is cell-based. The settings on record: Homo sapiens, SW-620, 144 h; SW620 cells, 6 days; read-out: SW620 3D cell growth GI50. The procedure, abridged: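 […], compound exposure lasted 6 days at 37° C, added the day after plating from DMSO stocks over a concentration range. Cells: SW620, KRAS G12V, 3D culture.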

The target of the next assay is KRAS-G12V/RAF1 (Homo sapiens (Human), UniProt P01116, G12V). The assay is described as follows: KRAS/RAF1 binding inhibition assay (AlphaScreen). The procedure, abridged: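 IC50 comes from variable-slope nonlinear fits of % inhibition (relative to DMSO) against inhibitor concentration. The AlphaScreen signal tracks the interaction of GppNHp-bound KRAS G12V with the RAF1 RBD after 60 min at 4° C with compound in 2% DMSO final.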
Chain of KRAS-G12V/RAF1 (P01116-2 other isoform, or with tags, fused parts or gaps G12V): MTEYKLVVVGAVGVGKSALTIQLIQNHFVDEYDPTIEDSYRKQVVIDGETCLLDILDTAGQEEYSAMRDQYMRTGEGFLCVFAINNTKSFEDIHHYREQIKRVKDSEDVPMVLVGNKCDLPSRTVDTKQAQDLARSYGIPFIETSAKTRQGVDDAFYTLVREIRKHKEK

Chain of KRAS G12V (P01116-2 other isoform, or with tags, fused parts or gaps G12V): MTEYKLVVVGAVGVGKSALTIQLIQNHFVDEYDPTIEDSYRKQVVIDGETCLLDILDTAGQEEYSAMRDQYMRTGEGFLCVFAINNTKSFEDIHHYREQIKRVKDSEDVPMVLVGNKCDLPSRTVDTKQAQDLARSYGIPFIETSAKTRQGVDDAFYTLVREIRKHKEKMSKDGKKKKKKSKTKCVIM

As usually defined, the DC50 is the concentration giving 50% degradation. As usually defined, the GI50 is the concentration giving 50% growth inhibition. The IC50 is the concentration needed to halve the response being measured. A low value points to higher potency. `CCc1c(F)ccc2cc(O)cc(-c3ncc4c(N5CCC[C@@](C)(O)C5)nc(OCC5(CN6CCC(CN7CCN(c8ccc(C9CCC(=O)NC9=O)cc8)CC7)CC6)CC5)nc4c3F)c12` (stereo partly drawn) [Compound 14, 3-(4-(4-((1-((1-(((7-(8-ethyl-7-fluoro-3-hydroxynaphthalen-1-yl)-8-fluoro-4-((R)-3-hydroxy-3-methylpiperidin-1-yl)pyrido[4,3-d]pyrimidin-2-yl)oxy)methyl)cyclopropyl)methyl)piperidin-4-yl)methyl)piperazin-1-yl)phenyl)piperidine-2,6-dione] came in with a 50% degradation concentration (DC50) on KRAS G12V of over 100 nM. Moreover, the GI50 in the assay with SW620 cells was in the range of 10 to 100 nM. The IC50 on KRAS-G12V/RAF1 is under 20 nM.
At KRAS G12V, `CCc1c(F)ccc2cc(O)cc(-c3ncc4c(N5CCC[C@@](C)(O)C5)nc(OCC5(CN6CC(N7CCN(c8ccc9c(c8)CN([C@H]8CCC(=O)NC8=O)C9=O)CC7)C6)CC5)nc4c3F)c12` [Compound 130, (S)-3-(5-(4-(1-((1-(((7-(8-ethyl-7-fluoro-3-hydroxynaphthalen-1-yl)-8-fluoro-4-((R)-3-hydroxy-3-methylpiperidin-1-yl)pyrido[4,3-d]pyrimidin-2-yl)oxy)methyl)cyclopropyl)methyl)azetidin-3-yl)piperazin-1-yl)-1-oxoisoindolin-2-yl)piperidine-2,6-dione] gave a DC50 of 1 to 10 nM. The GI50 with SW620 cells was under 10 nM. Besides, the IC50 on KRAS-G12V/RAF1 was 20 to 200 nM.
Take `CCc1c(F)ccc2cc(O)cc(-c3ncc4c(N5CCC[C@@](C)(O)C5)nc(OCC5(CN6CCC(N7CC8(CCN(c9ccc%10c(c9)CN(C9CCC(=O)NC9=O)C%10=O)CC8)C7)CC6)CC5)nc4c3F)c12` (stereo partly drawn) [Compound 143, 3-(5-(2-(1-((1-(((7-(8-ethyl-7-fluoro-3-hydroxynaphthalen-1-yl)-8-fluoro-4-((R)-3-hydroxy-3-methylpiperidin-1-yl)pyrido[4,3-d]pyrimidin-2-yl)oxy)methyl)cyclopropyl)methyl)piperidin-4-yl)-2,7-diazaspiro[3.5]nonan-7-yl)-1-oxoisoindolin-2-yl)piperidine-2,6-dione]: the DC50 at KRAS G12V was under 1 nM. In the assay on SW620 cells, the GI50 was under 10 nM. The same compound gave an IC50 on KRAS-G12V/RAF1 of under 20 nM.
For `CCc1c(F)ccc2cc(O)cc(-c3ncc4c(N5CCC[C@@](C)(O)C5)nc(OCC5(CN6CC7(CCC(N8CCN(c9ccc%10c(c9)CN([C@H]9CCC(=O)NC9=O)C%10=O)CC8)CC7)C6)CC5)nc4c3F)c12` [Compound 136, (S)-3-(5-(4-(2-((1-(((7-(8-ethyl-7-fluoro-3-hydroxynaphthalen-1-yl)-8-fluoro-4-((R)-3-hydroxy-3-methylpiperidin-1-yl)pyrido[4,3-d]pyrimidin-2-yl)oxy)methyl)cyclopropyl)methyl)-2-azaspiro[3.5]nonan-7-yl)piperazin-1-yl)-1-oxoisoindolin-2-yl)piperidine-2,6-dione] the same measures were under 1 nM, 10 to 100 nM and under 20 nM.
`CCc1c(F)ccc2cc(O)cc(-c3ncc4c(N5CCC[C@@](C)(O)C5)nc(OCC5(CN6CCC(N7CCC(N8CCN(c9ccc%10c(c9)CN([C@H]9CCC(=O)NC9=O)C%10=O)CC8)CC7)CC6)CC5)nc4c3F)c12` [Compound 147, (S)-3-(5-(4-(1′-((1-(((7-(8-ethyl-7-fluoro-3-hydroxynaphthalen-1-yl)-8-fluoro-4-((R)-3-hydroxy-3-methylpiperidin-1-yl)pyrido[4,3-d]pyrimidin-2-yl)oxy)methyl)cyclopropyl)methyl)-[1,4′-bipiperidin]-4-yl)piperazin-1-yl)-1-oxoisoindolin-2-yl)piperidine-2,6-dione]: at KRAS G12V, the DC50 is under 1 nM. For the same compound, the GI50 in the assay with SW620 cells is under 10 nM. This compound registered an IC50 at KRAS-G12V/RAF1 of under 20 nM.
Take `CCc1c(F)ccc2cc(O)cc(-c3ncc4c(N5CCC[C@@](C)(O)C5)nc(OCC5(CN6CCC(N7CC8(CN(c9ccc%10c(c9)CN(C9CCC(=O)NC9=O)C%10=O)C8)C7)CC6)CC5)nc4c3F)c12` (stereo partly drawn) [Compound 154, 3-(5-(6-(1-((1-(((7-(8-ethyl-7-fluoro-3-hydroxynaphthalen-1-yl)-8-fluoro-4-((R)-3-hydroxy-3-methylpiperidin-1-yl)pyrido[4,3-d]pyrimidin-2-yl)oxy)methyl)cyclopropyl)methyl)piperidin-4-yl)-2,6-diazaspiro[3.3]heptan-2-yl)-1-oxoisoindolin-2-yl)piperidine-2,6-dione]: the 50% degradation concentration (DC50) at KRAS G12V was under 1 nM. In addition, the GI50 with SW620 cells was under 10 nM. The compound further came in with an IC50 on KRAS-G12V/RAF1 of under 20 nM.
As for `CCc1cccc2cc(O)cc(-c3ncc4c(N5CCC[C@@](C)(O)C5)nc(OCC5(CN6CC[C@@H](CN7CC8(CCN(c9ccc%10c(c9)CN(C9CCC(=O)NC9=O)C%10=O)CC8)C7)C6)CC5)nc4c3F)c12` (stereo partly drawn) [Compound 18, 3-(5-(2-(((R)-1-((1-(((7-(8-ethyl-3-hydroxynaphthalen-1-yl)-8-fluoro-4-((R)-3-hydroxy-3-methylpiperidin-1-yl)pyrido[4,3-d]pyrimidin-2-yl)oxy)methyl)cyclopropyl)methyl)pyrrolidin-3-yl)methyl)-2,7-diazaspiro[3.5]nonan-7-yl)-1-oxoisoindolin-2-yl)piperidine-2,6-dione], at KRAS G12V, the DC50 was over 100 nM. Moreover, the GI50 in the assay on SW620 cells is 10 to 100 nM. Also, the IC50 on KRAS-G12V/RAF1 was under 20 nM.
As for `CCc1cccc2cc(O)cc(-c3ncc4c(N5CCCOCC5)nc(OCC5(CN6CCC7(CC6)CC(CN6CCN(c8ccc9c(c8)CN([C@H]8CCC(=O)NC8=O)C9=O)CC6)C7)CC5)nc4c3F)c12` [Compound 109, (S)-3-(5-(4-((7-((1-(((7-(8-ethyl-3-hydroxynaphthalen-1-yl)-8-fluoro-4-(1,4-oxazepan-4-yl)pyrido[4,3-d]pyrimidin-2-yl)oxy)methyl)cyclopropyl)methyl)-7-azaspiro[3.5]nonan-2-yl)methyl)piperazin-1-yl)-1-oxoisoindolin-2-yl)piperidine-2,6-dione], the DC50 on KRAS G12V is over 100 nM. Besides, the GI50 with SW620 cells is over 100 nM. This compound also came in with an IC50 at KRAS-G12V/RAF1 of over 200 nM.
As to `CCc1cccc2cc(O)cc(-c3ncc4c(N5CCNC(=O)CC5)nc(OCC5(CN6CCC7(CC6)CC(CN6CCN(c8ccc9c(c8)CN([C@H]8CCC(=O)NC8=O)C9=O)CC6)C7)CC5)nc4c3F)c12` [Compound 128, (S)-3-(5-(4-((7-((1-(((7-(8-ethyl-3-hydroxynaphthalen-1-yl)-8-fluoro-4-(5-oxo-1,4-diazepan-1-yl)pyrido[4,3-d]pyrimidin-2-yl)oxy)methyl)cyclopropyl)methyl)-7-azaspiro[3.5]nonan-2-yl)methyl)piperazin-1-yl)-1-oxoisoindolin-2-yl)piperidine-2,6-dione], the DC50 on KRAS G12V was over 100 nM. For the same compound, the GI50 with SW620 cells is over 100 nM. The compound also showed an IC50 on KRAS-G12V/RAF1 of over 200 nM.
`CCc1c(F)ccc2cc(O)cc(-c3ncc4c(N5CCC[C@@](C)(O)C5)nc(OCC5(CN6CCC7(CC6)CN(C6CCN(c8ccc9c(c8)CN(C8CCC(=O)NC8=O)C9=O)CC6)C7)CC5)nc4c3F)c12` (stereo partly drawn) [Compound 155, 3-(5-(4-(7-((1-(((7-(8-ethyl-7-fluoro-3-hydroxynaphthalen-1-yl)-8-fluoro-4-((R)-3-hydroxy-3-methylpiperidin-1-yl)pyrido[4,3-d]pyrimidin-2-yl)oxy)methyl)cyclopropyl)methyl)-2,7-diazaspiro[3.5]nonan-2-yl)piperidin-1-yl)-1-oxoisoindolin-2-yl)piperidine-2,6-dione]: at KRAS G12V, the DC50 was under 1 nM. Besides, in the assay with SW620 cells, the GI50 was under 10 nM. At KRAS-G12V/RAF1, this compound returned an IC50 of under 20 nM.
For `CCc1c(F)ccc2cc(O)cc(-c3ncc4c(N5CCOC[C@@](C)(O)C5)nc(OCC5(CN6CCC7(CC6)CC(CN6CCN(c8ccc9c(c8)CN([C@H]8CCC(=O)NC8=O)C9=O)CC6)C7)CC5)nc4c3F)c12` [Compound 105, (S)-3-(5-(4-((7-((1-(((7-(8-ethyl-7-fluoro-3-hydroxynaphthalen-1-yl)-8-fluoro-4-((S)-6-hydroxy-6-methyl-1,4-oxazepan-4-yl)pyrido[4,3-d]pyrimidin-2-yl)oxy)methyl)cyclopropyl)methyl)-7-azaspiro[3.5]nonan-2-yl)methyl)piperazin-1-yl)-1-oxoisoindolin-2-yl)piperidine-2,6-dione], the DC50 on KRAS G12V was over 100 nM. The GI50 in the assay on SW620 cells was over 100 nM. Moreover, at KRAS-G12V/RAF1, the IC50 fell in the range of 20 to 200 nM.
In the case of `CCc1c(F)ccc2cc(O)cc(-c3ncc4c(N5CCC[C@@](C)(O)C5)nc(OCC5(CN6CCC7(CC6)CC(C6CCN(c8ccc9c(c8)CN(C8CCC(=O)NC8=O)C9=O)CC6)C7)CC5)nc4c3F)c12` (stereo partly drawn) [Compound 186, 3-(5-(4-(7-((1-(((7-(8-ethyl-7-fluoro-3-hydroxynaphthalen-1-yl)-8-fluoro-4-((R)-3-hydroxy-3-methylpiperidin-1-yl)pyrido[4,3-d]pyrimidin-2-yl)oxy)methyl)cyclopropyl)methyl)-7-azaspiro[3.5]nonan-2-yl)piperidin-1-yl)-1-oxoisoindolin-2-yl)piperidine-2,6-dione], on KRAS G12V, the DC50 was under 1 nM. Moreover, the GI50 with SW620 cells was under 10 nM. In addition, the IC50 at KRAS-G12V/RAF1 was over 200 nM.
As for `CCc1cccc2cc(O)cc(-c3ncc4c(N(C)C5CC5)nc(OCC5(CN6CCC(CN7CCN(c8ccc9c(c8)CN([C@H]8CCC(=O)NC8=O)C9=O)CC7)CC6)CC5)nc4c3F)c12` [Compound 15, (S)-3-(5-(4-((1-((1-(((4-(cyclopropyl(methyl)amino)-7-(8-ethyl-3-hydroxynaphthalen-1-yl)-8-fluoropyrido[4,3-d]pyrimidin-2-yl)oxy)methyl)cyclopropyl)methyl)piperidin-4-yl)methyl)piperazin-1-yl)-1-oxoisoindolin-2-yl)piperidine-2,6-dione], the DC50 on KRAS G12V was over 100 nM. For the same compound, in the assay on SW620 cells, the GI50 was over 100 nM. This compound also returned an IC50 at KRAS-G12V/RAF1 of over 200 nM.
